Laboratory results: ChEMBL document CHEMBL1127756 (Bioorg Med Chem Lett, 1994)
pIC50: −log10 of the molar value. Numbered stars: 1 amine (or outer) side, 2 acyl side, 3 side chain; on linkers, the order of the positions; unused ones are H or OH. Square brackets hold non-standard residues; d marks the D form. Peptide text beside a SMILES is read from it. X1 = C/C=C/CC[C@H](N[*:1])C(=O)[*:2]; pGlu = O=C1CC[C@@H](C(=O)O)N1; Ahp(2) = CCCCC[C@H](N)C(=O)O

Legend:
[1] = molecular target: T1, Gastrin/cholecystokinin type B receptor (Mus musculus, UniProt P56481); experiment: Concentration producing half-maximal inhibition of specific binding of [125I]Bolton-Hunter CCK-8 to Cholecystokinin type B receptor in the mouse cerebral cortex; type: tissue-based
T1 sequence (P56481 whole entry): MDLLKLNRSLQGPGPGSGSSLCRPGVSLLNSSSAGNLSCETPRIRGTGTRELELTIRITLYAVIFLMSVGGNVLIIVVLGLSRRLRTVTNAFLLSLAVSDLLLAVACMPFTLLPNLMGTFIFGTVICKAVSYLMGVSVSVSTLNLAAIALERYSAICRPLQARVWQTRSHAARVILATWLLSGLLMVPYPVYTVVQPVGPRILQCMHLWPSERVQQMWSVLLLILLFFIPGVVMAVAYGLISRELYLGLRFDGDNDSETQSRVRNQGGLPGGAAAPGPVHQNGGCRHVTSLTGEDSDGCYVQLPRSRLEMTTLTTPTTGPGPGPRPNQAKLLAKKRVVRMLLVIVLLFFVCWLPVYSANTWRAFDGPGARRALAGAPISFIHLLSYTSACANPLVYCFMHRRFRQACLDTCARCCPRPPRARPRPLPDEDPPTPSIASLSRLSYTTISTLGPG

[2] = molecular target: T2, Cholecystokinin receptor type A (Rattus norvegicus, UniProt P30551); experiment: Concentration producing half-maximal inhibition of specific binding of [125I]Bolton-Hunter CCK-8 to Cholecystokinin type A receptor in the rat pancreas
T2 sequence (P30551 whole entry): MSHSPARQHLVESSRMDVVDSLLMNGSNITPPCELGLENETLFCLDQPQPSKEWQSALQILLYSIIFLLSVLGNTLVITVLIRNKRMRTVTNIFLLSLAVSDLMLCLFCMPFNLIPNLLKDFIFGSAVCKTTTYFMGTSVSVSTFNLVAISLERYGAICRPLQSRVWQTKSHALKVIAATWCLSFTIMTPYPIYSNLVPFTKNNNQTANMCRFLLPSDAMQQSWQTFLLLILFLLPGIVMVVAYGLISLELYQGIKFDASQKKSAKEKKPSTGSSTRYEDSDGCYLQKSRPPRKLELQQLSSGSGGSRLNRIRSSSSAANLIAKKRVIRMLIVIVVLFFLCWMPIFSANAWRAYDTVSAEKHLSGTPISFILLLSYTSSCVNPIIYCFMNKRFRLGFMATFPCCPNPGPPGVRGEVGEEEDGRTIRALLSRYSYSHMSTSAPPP

[3] = molecular target: T3, Substance-K receptor (Mesocricetus auratus) (UniProt P51144); experiment: (§1) Concentration producing half-maximal inhibition of specific binding of. [125I]neurokinin A to NK-2 receptors in the hamster urinary bladder; details: Cricetulus griseus
T3 sequence (whole entry): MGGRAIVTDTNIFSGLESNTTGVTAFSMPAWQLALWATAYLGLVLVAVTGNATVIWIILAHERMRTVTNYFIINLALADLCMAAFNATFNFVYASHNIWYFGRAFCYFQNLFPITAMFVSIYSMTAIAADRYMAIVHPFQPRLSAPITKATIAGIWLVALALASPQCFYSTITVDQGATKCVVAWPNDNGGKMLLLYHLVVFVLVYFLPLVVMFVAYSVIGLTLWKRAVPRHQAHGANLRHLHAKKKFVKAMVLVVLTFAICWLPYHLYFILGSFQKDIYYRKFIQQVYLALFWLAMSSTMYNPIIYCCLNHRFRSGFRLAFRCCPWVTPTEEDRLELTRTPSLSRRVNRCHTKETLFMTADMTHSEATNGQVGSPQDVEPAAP

[4] = molecular target: T4, Neuromedin-K receptor (Cavia porcellus) (UniProt P30098); experiment: (§2) Concentration producing half-maximal inhibition of specific binding of [3H]senktide to Tachykinin receptor 3 in the guinea pig cerebral cortex; type: tissue-based
T4 sequence (whole entry): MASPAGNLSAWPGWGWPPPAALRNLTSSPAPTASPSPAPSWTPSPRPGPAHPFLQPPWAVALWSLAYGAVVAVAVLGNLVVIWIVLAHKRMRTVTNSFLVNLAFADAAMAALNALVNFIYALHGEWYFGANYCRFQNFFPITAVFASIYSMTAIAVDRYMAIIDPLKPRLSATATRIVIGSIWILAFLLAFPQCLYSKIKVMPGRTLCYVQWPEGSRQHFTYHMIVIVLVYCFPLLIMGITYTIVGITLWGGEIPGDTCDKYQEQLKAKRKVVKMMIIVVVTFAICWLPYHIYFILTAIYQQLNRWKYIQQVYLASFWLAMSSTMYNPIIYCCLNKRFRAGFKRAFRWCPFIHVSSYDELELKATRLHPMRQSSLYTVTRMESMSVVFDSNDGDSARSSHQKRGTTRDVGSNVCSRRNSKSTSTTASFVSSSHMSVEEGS

Substance-P receptor = Substance-P receptor (Cavia porcellus, UniProt P30547); experiment: Concentration producing half-maximal inhibition of specific binding of. [125I]Bolton-Hunter Substance P to NK-1 receptors in the guinea pig cerebral cortex; type: tissue-based
Sequence of Substance-P receptor (P30547 whole entry): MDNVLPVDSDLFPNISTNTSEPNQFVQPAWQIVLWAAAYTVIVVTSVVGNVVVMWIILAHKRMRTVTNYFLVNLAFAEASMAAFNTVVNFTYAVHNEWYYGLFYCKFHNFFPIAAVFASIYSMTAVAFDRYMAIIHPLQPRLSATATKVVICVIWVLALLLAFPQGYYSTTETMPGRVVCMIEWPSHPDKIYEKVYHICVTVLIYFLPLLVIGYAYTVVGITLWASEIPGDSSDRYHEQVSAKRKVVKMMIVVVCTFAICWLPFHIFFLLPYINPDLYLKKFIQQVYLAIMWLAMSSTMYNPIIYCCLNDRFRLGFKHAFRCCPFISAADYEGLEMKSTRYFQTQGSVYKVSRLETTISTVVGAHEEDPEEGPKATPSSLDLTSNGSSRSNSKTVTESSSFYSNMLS

Substance-K receptor = molecular target: T5, Substance-K receptor (Mesocricetus auratus, UniProt P51144); experiment: as §1; type: single protein
T5 sequence (P51144 whole entry): T3 sequence (whole entry)

Neuromedin-K receptor = molecular target: T6, Neuromedin-K receptor (Cavia porcellus, UniProt P30098); experiment: as §2; type: tissue-based
T6 sequence (P30098 whole entry): T4 sequence (whole entry)

| Compound | pIC50 [2] | pIC50 (Substance-P receptor) | pIC50 (Substance-K receptor) | pIC50 (Neuromedin-K receptor) | other results |
| --- | --- | --- | --- | --- | --- |
| CCCCC[C@H](NC(=O)[C@@H](N)Cc1c[nH]c2ccccc12)C(=O)N[C@@H](CC(=O)O)C(=O)N[C@@H](Cc1ccccc1)C(N)=O (H-W[Ahp(2)]DF-NH2) | 5.07 |  |  |  | pIC50 [1]: 8.55 |
| CCCCC[C@H](NC(=O)[C@H](CC(C)C)NC(=O)CNC(=O)[C@H](Cc1ccccc1)NC(=O)[C@H](Cc1ccccc1)NC(=O)[C@H](CCC(N)=O)NC(=O)[C@@H]1CCC(=O)N1)C(N)=O ([pGlu]QFFGL[Ahp(2)]-NH2) |  | 7.01 |  |  | inhibition [3]: 47%; inhibition [4]: 25% |
| CCCCC[C@H](NC(=O)[C@H](CC(C)C)NC(=O)CNC(=O)[C@H](Cc1ccccc1)NC(=O)[C@H](Cc1ccccc1)NC(=O)[C@H](CCC(N)=O)NC(=O)[C@H](CCC(N)=O)NC(C)=O)C(N)=O (Ac-QQFFGL[Ahp(2)]-NH2) |  | 7.35 | 6.20 | 6.27 |  |
| C/C=C/CC[C@H](NC(=O)[C@H](CC(C)C)NC(=O)CNC(=O)[C@H](Cc1ccccc1)NC(=O)[C@H](Cc1ccccc1)NC(=O)[C@H](CCC(N)=O)NC(=O)[C@@H]1CCC(=O)N1)C(N)=O ([pGlu]QFFGL[X1]-NH2) |  | 6.44 | 5.54 | 5.73 |  |
| H-QQFFGLM-NH2 |  | 7.30 | 5.48 | 5.95 |  |
| Ac-QQFFGLM-NH2 |  | 7.53 | 5.79 | 6.56 |  |

Second part, led by results:

| pIC50 [2] | pIC50 (Substance-P receptor) | pIC50 (Substance-K receptor) | pIC50 (Neuromedin-K receptor) | Compound | other results |
| --- | --- | --- | --- | --- | --- |
| 5.09 |  |  |  | C/C=C/CC[C@H](NC(=O)[C@@H](N)Cc1c[nH]c2ccccc12)C(=O)N[C@@H](CC(=O)O)C(=O)N[C@@H](Cc1ccccc1)C(N)=O | pIC50 [1]: 8.31 |
| 5.37 |  |  |  | CSCC[C@H](NC(=O)[C@@H](N)Cc1c[nH]c2ccccc12)C(=O)N[C@@H](CC(=O)O)C(=O)N[C@@H](Cc1ccccc1)C(N)=O [TETRAGASTRIN] |  |
|  | 6.94 | 5.86 | 6.05 | C/C=C/CC[C@H](NC(=O)[C@H](CC(C)C)NC(=O)CNC(=O)[C@H](Cc1ccccc1)NC(=O)[C@H](Cc1ccccc1)NC(=O)[C@H](CCC(N)=O)NC(=O)[C@H](CCC(N)=O)NC(C)=O)C(N)=O (Ac-QQFFGL[X1]-NH2) |  |
|  | 7.60 |  |  | CSCC[C@H](NC(=O)[C@H](CC(C)C)NC(=O)CNC(=O)[C@H](Cc1ccccc1)NC(=O)[C@H](Cc1ccccc1)NC(=O)[C@H](CCC(N)=O)NC(=O)[C@@H]1CCC(=O)N1)C(N)=O ([pGlu]QFFGLM-NH2) |  |
